The nature of series [1]: Mutagenicity test according to Rec-assay. It counts as cell-based. The procedure: (§1) Eriocitrin is an ingredient derived from natural products, and it is contained in a juice of citrus fruits such as lemon and lime which have been already eaten in a large amount of several tens of milligrams per 100 ml. There is no problem with a safety to humans. It is negative in the mutagenicity test according to Rec-assay or Ames assay. Thus, the safety has been identified.

A short description of series [2]: Mutagenicity test according to Ames assay. It counts as cell-based. The protocol:
as §1

With `C[C@@H]1O[C@@H](OC[C@H]2O[C@@H](Oc3cc(O)c4c(c3)O[C@H](c3ccc(O)c(O)c3)CC4=O)[C@H](O)[C@@H](O)[C@@H]2O)[C@H](O)[C@H](O)[C@H]1O` [Eriocitrin, eriodictyol-7-rutinoside], in series [1], the “mutagenicity test according to Rec-assay” value is recorded as “negative”. The “mutagenicity test according to Ames assay” value in series [2] was “negative”.

These data come from patent US6350477B1, “Food material containing antioxidant ingredient derived from citrus fruits” (Pokka Corporation, priority 1998, dated 2002).
